Assay [1] concerns the target T1, Glutamate carboxypeptidase 2 (Homo sapiens, UniProt Q04609). In words: Displacement of [18F]PSMA-1007 from human PSMA expressed in human LNCaP cells by competitive binding assay. It is filed as cell-based.
Target sequence in this assay (Q04609 whole entry): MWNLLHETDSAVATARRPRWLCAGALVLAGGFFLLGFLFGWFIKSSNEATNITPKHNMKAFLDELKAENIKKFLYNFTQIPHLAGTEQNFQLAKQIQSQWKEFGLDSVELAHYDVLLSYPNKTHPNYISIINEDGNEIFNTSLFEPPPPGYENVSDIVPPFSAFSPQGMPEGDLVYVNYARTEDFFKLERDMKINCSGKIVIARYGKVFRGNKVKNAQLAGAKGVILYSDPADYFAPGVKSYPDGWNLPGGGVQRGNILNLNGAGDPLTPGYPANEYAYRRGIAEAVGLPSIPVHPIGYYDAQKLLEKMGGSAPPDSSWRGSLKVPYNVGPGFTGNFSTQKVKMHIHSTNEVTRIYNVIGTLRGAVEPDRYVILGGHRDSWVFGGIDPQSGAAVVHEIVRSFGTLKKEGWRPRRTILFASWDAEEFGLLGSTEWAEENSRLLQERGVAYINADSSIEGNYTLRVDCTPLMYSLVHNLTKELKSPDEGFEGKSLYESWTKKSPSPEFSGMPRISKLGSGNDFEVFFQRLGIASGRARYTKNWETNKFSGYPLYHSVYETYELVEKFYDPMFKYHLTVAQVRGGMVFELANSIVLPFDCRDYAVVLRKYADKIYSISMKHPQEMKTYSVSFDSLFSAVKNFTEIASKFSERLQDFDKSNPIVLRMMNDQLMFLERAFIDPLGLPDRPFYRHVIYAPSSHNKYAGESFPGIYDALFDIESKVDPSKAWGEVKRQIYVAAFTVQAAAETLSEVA
The target of assay [2] is T1, Glutamate carboxypeptidase 2. In words: Displacement of [18F]PSMA-1007 from human PSMA expressed in human LNCaP cells at 0.1 to 100000 nM by competitive binding assay. It is filed as cell-based. The settings on record: dose 0.1-100000 nM. Background: Loss of bound radioactivity is the signal in a displacement assay; it reports binding, not function.
Target sequence in this assay (Q04609 whole entry, looked up): as the sequence (Q04609 whole entry) above

Structures are written as SMILES. Activity calls are given as the source filed them. The rule behind the calls is not given here.

The term IC50 denotes the point on the concentration scale where inhibition reaches its midpoint. On to `O=C(O)CC[C@H](NC(=O)N[C@@H](CCCCNC(=O)[C@H](Cc1ccc2ccccc2c1)NC(=O)[C@H]1CC[C@H](CNC(=O)[C@H](CCC(=O)O)NC(=O)[C@H](CCC(=O)O)NC(=O)c2ccc(F)nc2)CC1)C(=O)O)C(=O)O`, for which the IC50 in assay [1] turned out to be 4 nM. `O=C(O)CC[C@H](NC(=O)N[C@@H](CCCC(=O)NCc1ccc(F)cc1)C(=O)O)C(=O)O`: in assay [1], the IC50 was 1500 nM. This IC50 is about 380-fold higher than that of the compound before. In the case of `O=C(Nc1scc(C(=O)O)c1C(=O)O)N[C@@H](CCCCNC(=O)c1ccc(F)cc1)C(=O)O`, the inhibition entry in assay [2] is “inactive”. On to `O=C(Nc1scc(C(=O)O)c1C(=O)O)N[C@@H](CCCCNC(=O)c1cccc(F)n1)C(=O)O`, for which the inhibition entry in assay [2] is “inactive”. Compound `O=C(O)CC[C@H](CC(=O)N[C@@H](CCCCNC(=O)[C@H](Cc1ccccc1)NC(=O)COc1ccc(C[C@H](NC(=O)CCC(=O)CO/N=C/c2ccc(F)cc2)C(=O)O)cc1)C(=O)O)C(=O)O` gave an IC50 in assay [1] of 13 nM. In turn, `O=C(O)CC[C@H](NC(=O)N[C@@H](CCCC(=O)Nc1ccc(F)nc1)C(=O)O)C(=O)O` yielded a half-inhibitory concentration (IC50) in assay [1] of 90 nM.

The record behind these values is ChEMBL document CHEMBL5360610, “N-Alkyl Carbamoylimidazoles as Versatile Synthons for the Synthesis of Urea-Based PSMA Inhibitors” (ACS Med Chem Lett, 2023).
